Measured values reported in US12685719B2, “Treatment of breast cancer with selective androgen receptor modulators and cyclin-dependent kinase 4/6 inhibitors” (UNIVERSITY OF TENNESSEE RESEARCH FOUNDATION, priority 2012, dated 2026).

Test system: MDA-MB-231 triple negative breast cancer cells
Experiment: SRB cell viability of MDA-MB-231 cells infected with AR or LacZ adenovirus
Assay type: cell-based
Conditions: treated 3 days
Procedure: The SRB assay was used to determine cell number during cytotoxocity experiments. The following protocol was used: • 1. Cells were detached with 0.25% trypsin. • 2. Experimental cultures were cultured in 96-well microtiter plates (200 uL growth medium per well; 1,000-200,000 cells per well). • 3. Cultures were fixed with 50 uL 50% TCA (4° C.). (see cell fixation protocol for details). • 4. Fixed cells were stained with 50 uL 0.4% (wt/vol) SRB in 1% acetic acid for 10 minutes. • 5. SRB was removed and the cultures were quickly* rinsed 5 times with 1% acetic acid to remove unbound dye.** • 6. Cultures were air-dried overnight until there was no visible moisture. • 7. […] Absorbance was read at 540 nm. • * quickly performing rinsing process was to prevent desorption of protein-bound SRB • ** completely removed residual wash solution by sharply flicking plates over sink. […]
Cells were treated in charcoal stripped FBS (FIGS. 4A, 4C, 4E, 4G, 4I, 4K, 4M and 4O) or full serum (FIGS. 4B, 4D, 4F, 4H, 4J, 4L, 4N and 4P) for 3 days, fixed and stained with […] (SRB) to measure cell viability. Anti-proliferative IC50 values were calculated in breast cancer cells and compared to transactivation values, i.e., EC50 (agonists) and IC50 (antagonists) values, generated in HEK-293 cells.

Structure (SMILES): C[C@](O)(COc1ccc(C#N)cc1)C(=O)Nc1ccc(C#N)c(C(F)(F)F)c1 [Formula IX, (S)-N-(4-Cyano-3-(trifluoromethyl)phenyl)-3-(4-cyanophenoxy)-2-hydroxy-2-methylpropanamide]
- cell growth (SRB cell viability): inhibited
